Data on 98 compounds can be found in PubChem BioAssay AID540268 (Broad Institute, 2011).

Active and inactive are the calls of the source. How the calls were made is not given here.

A short description of one assay: reduced viability of parasite-Hsp90 expressing yeast – ATP luminescence, 48 h, cherry-picked samples, anti-malarial Hsp90 inhibitor project, dose response (AID 540268).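 On activity change, negative = inhibition: 0% = neutral control wells and -100% = positive control wells.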 The conditions noted are these: yeast expressing the parasite Hsp90, ATP luminescence.
By AC50 is commonly meant the concentration giving half of the maximal activity seen. As for `O=[N+]([O-])c1cc(CN2CCN(c3cccc(C(F)(F)F)c3)CC2)c2cccnc2c1O`, the AC50 was 4.42 µM.
On to `COc1cc2cnc(-c3ccccc3)c(C(=O)c3ccc(F)cc3)c2cc1OC`, for which the concentration at half-maximal activity (AC50) was 3.01 µM.
On the same count and under the same terms, as for `COc1ccc2c(c1)OC[C@H]1[C@H]2N2C(=O)c3cc(Br)ccc3NC(=O)[C@@]2(C)[C@H]1c1ccccc1`, the figure is 0.658 µM; as for `CC[C@@H](C)[C@H](NC(=O)OC(C)(C)C)c1nnc(S(=O)(=O)Cc2cc(C)ccc2C)o1`, 5.46 µM; as for `Cc1cc2cc(CNC(=O)c3ccc(C)c([N+](=O)[O-])c3)ccc2[nH]1`, 8.29 µM.
Still for that read-out and setting: as for `COc1ccc(S(=O)(=O)N(C(=O)c2ccncc2)c2ccc(OC(=O)c3ccncc3)cc2)cc1`, the figure is 1.68 µM.
As to `Cn1c(O)c(C(=Nc2ccc(F)cc2)c2ccccc2Cl)c(=O)n(C)c1=O`, the AC50 is 2.28 µM.
`Oc1ccccc1-c1nc(NC2CCCC2)c2ccccc2n1`: the AC50 is 4.26 µM.
With `Cc1c(CCCl)c(Cl)n2c(nc3ccccc32)c1C#N`, the AC50 is 3.39 µM.
Consider `Cc1c(Cl)sn(-c2ccc(Cl)cc2)c1=O`, for which the AC50 is under 0.195 µM.
As to `CCOC(=O)c1cc2cc(OCc3ccccc3)ccc2nc1C`, the AC50 is 2.97 µM.
Same read-out and setting: as for `CC1=CC(C)CC(C)OC(=O)CC(c2ccc(O)cc2)NC(=O)C(Cc2c(Br)[nH]c3ccccc23)N(C)C(=O)C(C)NC(=O)C(C)C1` (stereo not drawn), the figure is 5.2 µM; as for `CCCC(=O)NC(c1ccccc1Cl)c1ccc2cccnc2c1O` (stereo not drawn), 4.13 µM.
The same measure, in the same setting: as for `O=[N+]([O-])c1oc2ccc3ccccc3c2c1CCO`, the figure is 2.06 µM.
`COc1ccc(C(C)(C)C)cc1NC(=O)Nc1ccc2c(c1)OCO2`: the AC50 was 8.96 µM.
On the same count and under the same terms, for `O=C(CC(O)(C(F)(F)F)C(F)(F)F)Nc1ccc(Cl)c(Cl)c1` the value was 17.5 µM; for `COc1ccc(N2CCN(C(=O)c3ccc(Br)cc3)CC2)c([N+](=O)[O-])c1`, 0.497 µM.
Still for that read-out and setting: for `Oc1c(C(Nc2nccs2)c2ccc(C(F)(F)F)cc2)ccc2cccnc12` (stereo not drawn) the value was 2.49 µM; for `COc1ccccc1-c1sc2ccccc2c1-c1ccc(O)cc1`, 3.78 µM.
The same measure, in the same setting: as for `c1ccc(-c2c(-c3ccccc3)n(Cc3ccco3)c3ncnc(NCCCn4ccnc4)c23)cc1`, the figure is 1.83 µM.
For the compound `Cc1ccc(NC(=S)N/N=C/c2ccc([N+](=O)[O-])s2)cc1`, the AC50 was 4.92 µM.
On the same count and under the same terms, as for `CCOc1ccc(NCc2cc3c(C(C)(C)C)nn(-c4ccccc4)c3[nH]c2=O)cc1`, the figure is 18.1 µM; as for `COc1cc2c(cc1OC)C(=O)N1[C@H]3c4ccccc4OC[C@@H]3[C@H](c3ccccc3)[C@]1(C)C(=O)N2`, 8.37 µM.
As to `Cn1nnnc1N=N/C(=N/Nc1ccccc1)c1ccccc1`, the AC50 is 3.2 µM.
As to `O=C1CC(c2ccccc2)=NN1c1nc(-c2ccccc2)cs1`, the AC50 was 1.14 µM.
As for `Cc1cccc(N2C(=O)C=CC2=O)c1`, the AC50 was 0.372 µM.
Take `CCOCCCNC1=C(Cl)C(=O)c2ccccc2C1=O`: the AC50 was 4.93 µM.
As to `CC1C/C(=C/c2ccncc2)C(=O)/C(=C/c2ccncc2)C1` (stereo not drawn), the AC50 is 2.83 µM.
Still for that read-out and setting: as for `CCCCCCCCCCCCCCCC[n+]1ccc(C(N)=O)cc1`, the figure is 7.6 µM; as for `CCOC(=O)N=Nc1c2ccccc2c2nc3no[nH]c3nc12`, 0.769 µM; as for `Cc1ccc(S(=O)(=O)NCC23C=CC(O2)C2C(=O)N(c4ccccc4)C(=O)C23)cc1` (stereo not drawn), 4.8 µM.
Still for that read-out and setting: as for `Cc1ccc(N=N/C(=C\O)C(=O)c2ccc(Cl)cc2)cc1`, the figure is 8.29 µM; as for `COc1ccc(/C=C/C(=O)c2cc(Br)ccc(=O)c2O)cc1`, 3.21 µM; as for `O=C(/C=C/c1ccnc2ccccc12)c1cccs1`, 4.64 µM.
On the same count and under the same terms, as for `O=C1/C(=C\c2ccc(Cl)cc2)CCC1CNc1ccc(Cl)cc1` (stereo not drawn), the figure is under 0.195 µM; as for `CN1CCN(C(c2ccc(Cl)cc2)c2cc(Cl)c3cccnc3c2O)CC1` (stereo not drawn), 0.615 µM.
For `COc1ccc(C(=O)/C=C/C(=O)N(CC(=O)NC2CCCCC2)Cc2cccs2)c(O)c1`, the AC50 is 3.3 µM.
The same measure, in the same setting: as for `Cc1ccc(C(=O)c2coc3c2C(=O)C(=O)c2ccccc2-3)cc1`, the figure is 8.16 µM; as for `Cc1cccc2cc(CN(Cc3nnnn3C3CCCCC3)C3CCCC3)c3nnnn3c12`, 2.2 µM; as for `CCCCCCCCCCCCCCCC(O)C[N+](C)(C)CCO` (stereo not drawn), 6.61 µM.
Same read-out and setting: for `CCCCOc1ccc(C(=O)NNC(=S)NC(=O)CC)cc1` the value was 4.2 µM; for `O=C(NN1C(=O)/C(=C\c2ccc(O)c([N+](=O)[O-])c2)SC1=S)c1ccccc1Cl`, 5.92 µM.
For the compound `CCCCCCOC(=O)Sc1nc2ccccc2o1`, the AC50 was 1.57 µM.
`C[C@@]12C(=O)Nc3ccc(Cl)cc3C(=O)N1[C@H]1c3ccccc3OC[C@@H]1[C@@H]2c1ccccc1`: the AC50 is 0.487 µM.
In the case of `COc1ccc(C2=CC3=C(Br)C(=O)C(C)(OC(=O)c4ccco4)C(=O)C3=CO2)cc1` (stereo not drawn), the AC50 was 3 µM.
On the same count and under the same terms, as for `CCCCCCCCCCCCCC(=O)NO`, the figure is under 0.195 µM; as for `COc1cc(/C=N/O)cc(Br)c1OCc1cccc(Cl)c1`, 8.2 µM.
Same read-out and setting: as for `O=[N+]([O-])/C=C\c1ccc(N2CCCC2)c(F)c1`, the figure is 6.27 µM; as for `COc1ccccc1NC(=O)COC(=O)c1ccc([N+](=O)[O-])s1`, 3.02 µM; as for `CCCc1ccc(Oc2cn[nH]c2-c2ccc(O)c(C)c2O)cc1`, 0.408 µM.
The same measure, in the same setting: for `CC(C)=CCc1cc([C@@H]2COc3c(ccc4c3C=CC(C)(C)O4)C2)c(O)cc1O` the value was 0.265 µM; for `CCN1CCN(C(c2ccc(C(F)(F)F)cc2)c2ccc3cccnc3c2O)CC1` (stereo not drawn), 1.54 µM.
For the compound `Cc1c(Cl)cccc1N=Cc1ccc([N+](=O)[O-])s1`, the AC50 was 8.3 µM.
Same read-out and setting: as for `CCOC(=O)/C(=C\c1cccnc1)C(=O)c1cc(C(C)=O)c(Nc2ccccc2)s1`, the figure is 3.93 µM; as for `CCCCC(=O)NC(c1ccccc1)c1ccc2cccnc2c1O` (stereo not drawn), 23.6 µM; as for `CCN1/C(=C\c2ccc3cc(C)ccc3[n+]2CC)Sc2cc(C)c(C)cc21`, 3.51 µM.
Still for that read-out and setting: as for `CCCC(=O)NC(c1ccc(OC)cc1)c1ccc2cccnc2c1O` (stereo not drawn), the figure is 6.15 µM.
On the same count and under the same terms, for `Cc1ccc(NC(=O)c2nc(S(=O)(=O)Cc3ccccc3)ncc2Cl)cc1` the value was 4.12 µM; for `CCCOc1ccc2ccccc2c1/C=C1\SC(=O)NC1=O`, 7.76 µM; for `O=C(C#Cc1cccc([N+](=O)[O-])c1)c1ccccc1`, 0.36 µM.
As to `O=C(Nc1nc(-c2ccccn2)cs1)c1ccc(Br)s1`, the AC50 was 2.18 µM.
The same measure, in the same setting: as for `Cc1cccc(NC(=S)NCC23C=CC(O2)C2C(=O)N(c4ccc(Cl)cc4)C(=O)C23)c1` (stereo not drawn), the figure is 8.4 µM; as for `Cc1sc(NC(=O)c2ccco2)c(C(c2cccnc2)N2CCC(C)CC2)c1C` (stereo not drawn), 7.74 µM; as for `CC1(C)C=Cc2c(ccc3c2OC[C@H](c2ccc(O)cc2O)C3)O1`, 4.6 µM.
On the same count and under the same terms, as for `Cc1ccc(C(=O)OCn2ncc(Cl)c(Cl)c2=O)cc1`, the figure is 3.23 µM; as for `CCn1c(CNc2ccc(Cl)cc2)nnc1SCc1ccc(C)cc1`, 8.23 µM.
For `CCCCC(=O)NC(c1ccccc1OC)c1ccc2cccnc2c1O` (stereo not drawn), the AC50 is 4.45 µM.
The same measure, in the same setting: for `CCOc1ccc(N2C(=O)/C(=C\c3ccccc3OC)S(=O)(=O)C2c2cccc([N+](=O)[O-])c2)cc1` (stereo not drawn) the value was 21.6 µM; for `O=S(=O)(/C=C/c1ccccc1)NC1CCCCCC1`, 4.16 µM; for `COC(=O)c1ccc(NC(=O)c2nc(S(=O)(=O)Cc3cccc(C)c3)ncc2Cl)cc1`, 3.99 µM.
For the compound `CC(=NNC(=S)N(Cc1ccccn1)Cc1ccccn1)c1cnccn1`, the AC50 is 3.95 µM.
Turning to `O=C(NC(c1ccc(Cl)cc1)c1cc(Cl)c2cccnc2c1O)c1cccnc1` (stereo not drawn), the concentration at half-maximal activity (AC50) was 24.4 µM.
As for `COc1ccccc1C(=O)Nc1nc2ccccc2[nH]1`, the AC50 was 1.22 µM.
Same read-out and setting: for `Oc1cccc2ccc(/C=C/c3ccccc3Br)nc12` the value was 16.9 µM; for `CCC(=O)OC1(C)C(=O)C2=COC(c3ccc(OC)cc3)=CC2=C(Br)C1=O` (stereo not drawn), 2.81 µM.
As to `Cc1cccc(COC(=O)CCCNC(=O)c2ccc(Cl)cc2)c1`, the concentration at half-maximal activity (AC50) is 8.69 µM.
Still for that read-out and setting: for `CC(C)(C)c1ccc(C(=O)CC(Sc2ccc(Cl)cc2)C(=O)O)cc1` (stereo not drawn) the value was 7.29 µM.
Still for that read-out and setting: as for `CC(C)(C)C(O)C(Oc1ccc(Cl)cc1)n1cncn1` (stereo not drawn), the figure is under 0.195 µM; as for `CC1=C(C)/C(=N\OS(=O)(=O)c2ccc(C)cc2)C=CC1=O`, 1.22 µM.
The same measure, in the same setting: as for `COc1ccc2sc(-c3ccccc3OC)c(-c3ccc(O)cc3)c2c1`, the figure is 8.46 µM; as for `CCCCCCCCn1sccc1=O`, 0.871 µM.
In the case of `CCN1C/C(=C/c2cccc([N+](=O)[O-])c2)C(=O)/C(=C/c2cccc([N+](=O)[O-])c2)C1`, the half-maximal activity concentration (AC50) was 3.22 µM.
Regarding `O=C(OCn1ncc(Cl)c(Cl)c1=O)c1cccc(C(F)(F)F)c1`, the AC50 is 5.36 µM.
On the same count and under the same terms, as for `CC1CCN(C2CC(=O)N(c3ccc(Br)cc3Br)C2=O)CC1` (stereo not drawn), the figure is 0.774 µM; as for `O=c1oc(-c2ccccc2)cc(Cl)c1Cl`, 3.77 µM; as for `COCC(=O)n1nc(NCc2ccc(OC)cc2)nc1NCc1ccc(OC)cc1`, 8.06 µM.
Same read-out and setting: for `CCCC(=O)NC1=C(Cl)C(=O)c2ccccc2C1=O` the value was under 0.195 µM.
The same measure, in the same setting: as for `O=C(c1cccs1)c1no[n+]([O-])c1C(=O)c1cccs1`, the figure is 2.18 µM.
Turning to `Cc1ccc(O)c(N=Nc2nccs2)c1`, the AC50 is 1.2 µM.
The same measure, in the same setting: for `N#Cc1c2ccc([N+](=O)[O-])cc2[n+]([O-])n1-c1ccccc1` the value was 2.1 µM.
Still for that read-out and setting: for `O=C(Nc1ccccc1)Oc1cccc2cccnc12` the value was 2.12 µM.
Still for that read-out and setting: as for `COc1ccc(CCN2C(=O)C=CC2=O)cc1OC`, the figure is 1.41 µM.
In the case of `Cc1ccc(C(=O)C(SC(C)(C)C)n2cncn2)cc1` (stereo not drawn), the AC50 is 4.25 µM.
The same measure, in the same setting: for `COc1ccc(C(C[N+](=O)[O-])n2nc(C)cc2C)cc1` (stereo not drawn) the value was 0.365 µM.

The assay is the same for the next values; noted with them: yeast expressing the parasite Hsp90, ATP luminescence, at 26 µM (top of the series).
As for `O=C(/C(=C\c1ccccc1)c1nc2ccccc2[nH]1)c1ccc(Cl)cc1`, the activity change, negative = inhibition is -31.8% (inactive).
As to `N#C/C(=C/c1ccc(O)cc1)C(=O)NCc1ccc(Cl)cc1`, the activity change, negative = inhibition was 10.6% (inactive).
Same read-out and setting: for `CC(C)(C)c1nn(-c2ccccc2)c2[nH]c(=O)c(CNc3ccc4c(c3)OCCO4)cc12` the value was -106% (inactive).
Same read-out and setting: as for `Cc1ccc(-c2cc(-c3ccc(F)cc3)c(C#N)c(N)n2)o1`, the figure is 19.7% (inactive).
